How the values were obtained:
[1] = Lipid and water solubility of click-chemistry candidate compound compared with Example 4; assay type: physicochemical
Source text: The compound of Example 4, copper sulfate, and a cyclopropyl azide compound (refer to Chemische Berichte (1985), 118(4), 1564-1574; Science of Synthesis (2010), 41, 543-612; Nature (London, United Kingdom) (2019), 574(7776), 86-89) were stirred and reacted at room temperature, and after the reaction was completed, target compounds could be prepared by silica gel column chromatography. Rf: 0.16 (dichloromethane:methanol=10:1).

[2] = Oral glucose tolerance test (OGTT) after continuous administration in rats for 14 days; assay type: in vivo, SD rats; details: for blood sugar level in OGTT: 0.009 mg/kg oral gavage for 14 days, OGTT on day 15; for loose stools: 0.009 mg/kg oral gavage, within 48 hours before and after the experiment
Method: • Experimental animals: SPF male SD rats; • Compound preparation: an appropriate amount of the compounds of Example 1, Example 3, and Example 4 were weighed, and uniformly suspended with an appropriate amount of 0.5% CMC-Na solution; • Preparation of glucose solution: an appropriate amount of glucose powder was weighed and dissolved with an appropriate amount of pure water; • Dosage and method of administration: 0.009 mg/kg, oral gavage.
Experimental process: the animals were fed a normal diet with consecutive administration for 14 days, and the glucose tolerance test was performed on day 15, blood glucose was detected before administration (−30 min), before giving glucose (0 min), and 10, 30, 60, and 120 min after giving glucose solution, and the defecation of animals was observed.

[3] = biological target: T1, SGLT1 (Homo sapiens, UniProt P13866); assay: hSGLT1 inhibitor activity experiment 2: 2-NBDG uptake by HEK293 cells stably expressing human SGLT1; assay type: cell-based; design: expressed in transfected cells; details: read-out: SGLT1 Inhibitory Activity
T1 sequence (P13866 1-664): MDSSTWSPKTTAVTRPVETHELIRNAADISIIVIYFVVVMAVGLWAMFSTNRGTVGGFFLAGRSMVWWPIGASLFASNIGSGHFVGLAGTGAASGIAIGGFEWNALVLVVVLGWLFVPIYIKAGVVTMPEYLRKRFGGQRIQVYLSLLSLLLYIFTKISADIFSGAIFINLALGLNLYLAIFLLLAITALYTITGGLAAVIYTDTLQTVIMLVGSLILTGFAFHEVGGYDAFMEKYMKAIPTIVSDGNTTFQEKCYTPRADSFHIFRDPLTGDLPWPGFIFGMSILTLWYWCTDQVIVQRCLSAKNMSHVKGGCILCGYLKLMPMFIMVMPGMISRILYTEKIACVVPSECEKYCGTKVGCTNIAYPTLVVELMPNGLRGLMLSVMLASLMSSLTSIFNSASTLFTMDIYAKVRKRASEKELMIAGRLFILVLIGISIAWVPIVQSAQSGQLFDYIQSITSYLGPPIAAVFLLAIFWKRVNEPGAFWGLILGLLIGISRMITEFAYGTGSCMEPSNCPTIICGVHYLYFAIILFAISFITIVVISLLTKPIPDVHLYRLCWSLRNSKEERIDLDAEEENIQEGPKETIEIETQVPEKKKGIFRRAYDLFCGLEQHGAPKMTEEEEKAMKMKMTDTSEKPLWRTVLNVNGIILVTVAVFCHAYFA
Method: Inhibitory activity testing was performed with reference to a similar method described in document [Acta Pharmaceutica Sinica 2017, 52 (6): 897-903; Nature Protocols (2007), 2(3), 753-762; Journal of Biochemical and Biophysical Methods (2005), 64(3), 207-215; Diabetes Technology & Therapeutics (2011), 13(7), 743-775].
In this experiment, the in vitro activity assay was evaluated using the uptake of 2-NBDG (2-Deoxy-2-[(7-nitro-2,1,3-benzoxadiazol-4-yl)amino]-D-glucose, CAS NO: 186689-07-6) by human embryonic kidney epithelial cells (HEK293, stably expressing human SGLT1), and the SGLT1 inhibitory activity of the target compound was determined by measuring its half-maximal inhibitory concentration (IC50).
HEK293 cells that can stably express human SGLT1 gene were inoculated into a 96-well clear-bottom black plate containing DMEM medium. The cells were incubated at 37° C., 5% CO2 in a cell incubator. The medium in the 96-well plate was aspirated, and the plate was treated with low-glucose serum-free DMEM medium, and washed once with non-specific uptake buffer and once with Na^+-dependent uptake buffer. Uptake buffer containing test compound was added to each well of cells, followed by uptake buffer containing 2-NBDG for glucose uptake, and the cell plate was incubated at 37° C., 5% CO2. The compounds were gradiently diluted. The uptake reaction was stopped by removing the culture medium, and after washing the cells with ice-cold uptake buffer, the washing solution was removed. The cells were lysed by adding NaOH, and the content of 2-NBDG in the cells was detected by a fluorescence microplate reader. The protein concentration of the lysate was measured by BCA method, the uptake of 2-NBDG was quantified by fluorescence intensity/protein content, and the obtained data were analyzed using GraphPad Prism to determine the median inhibitory concentration (IC50) of the compound to be tested. […]

[4] = biological target: T1, SGLT1; assay: SGLT1 inhibitor activity experiment 1; assay type: cell-based
Method: The inhibitory activity of SGLT1 was tested with reference to the method described in document (Journal of Medicinal Chemistry 2017, 60, 710-721, Discovery of LX2761, a Sodium-Dependent Glucose Cotransporter 1 (SGLT1) Inhibitor Restricted to the Intestinal Lumen, for the Treatment of Diabetes).

[5] = Pharmacokinetic study in rats; assay type: in vivo, SD rats; details: 10 mg/kg oral gavage
Method: 5. Pharmacokinetic Study in Rats • Experimental animals: SPF male SD rats; • Dosage and method of administration: 10 mg/kg, oral gavage. • Research compound: Dapagliflozin, the compound of Example 4, the compound of Example 6, and the comparative compound 6; • Test method: Before administration (0), and 1, 4, 8, and 24 hours after administration, 0.2 ml of blood was collected from orbital venous plexus, anticoagulated with heparin, and plasma was collected.
Note: The comparative compound 6 is the compound numbered “6” in the document (Journal of Medicinal Chemistry 2017, 60, 710-721, Discovery of LX2761, a Sodium-Dependent Glucose Cotransporter 1 (SGLT1) Inhibitor Restricted to the Intestinal Lumen, for the Treatment of Diabetes). It was prepared and identified according to the synthetic method described in the document.

SMILES: CS[C@H]1O[C@@H](c2ccc(C)c(Cc3ccc(CCCC(=O)NC(C)(C)C(=O)NCCN(C)Cc4cn(C5CC5)nn4)cc3)c2)[C@H](O)[C@@H](O)[C@@H]1O
- lipid solubility compared with Example 4 [1]: better
- water solubility compared with Example 4 [1]: better

SMILES: CS[C@H]1O[C@@H](c2ccc(C)c(Cc3ccc(CCCC(=O)NC(C)(C)C(=O)NCCN4CCCC4)cc3)c2)[C@H](O)[C@@H](O)[C@@H]1O [Example 1]
- blood sugar level in OGTT [2]: significantly reduce the blood sugar level of rats
- loose stools [2]: no loose stools were observed
- IC50 [3]: 0.67 nM

SMILES: CS[C@H]1O[C@@H](c2ccc(C)c(Cc3ccc(CCCC(=O)NC(C)(C)C(=O)NCCN4CCN(C)CC4)cc3)c2)[C@H](O)[C@@H](O)[C@@H]1O [Example 2]
- IC50 [3]: 1.27 nM

SMILES: CS[C@H]1O[C@@H](c2ccc(C)c(Cc3ccc(CCCC(=O)NC(C)(C)C(=O)NCCN(C)Cc4ccccc4)cc3)c2)[C@H](O)[C@@H](O)[C@@H]1O [Example 3]
- blood sugar level in OGTT [2]: significantly reduce the blood sugar level of rats
- loose stools [2]: no loose stools were observed
- IC50 [3]: 0.83 nM

SMILES: C#CCN(C)CCNC(=O)C(C)(C)NC(=O)CCOc1ccc(Cc2cc([C@@H]3O[C@H](SC)[C@@H](O)[C@H](O)[C@H]3O)ccc2C)cc1 [Example 5]
- IC50 [4]: < 50 nM

SMILES: C#CCN(C)CCNC(=O)C(C)(C)NC(=O)CCOCc1ccc(Cc2cc([C@@H]3O[C@H](SC)[C@@H](O)[C@H](O)[C@H]3O)ccc2C)cc1 [Example 6]
- IC50 [4]: < 50 nM
- drug concentration in plasma [5]: did not reach the detection limit

SMILES: C#CCN(C)CCNC(=O)C(C)(C)NC(=O)C/C=C/c1ccc(Cc2cc([C@@H]3O[C@H](SC)[C@@H](O)[C@H](O)[C@H]3O)ccc2C)cc1 [Example 7]
- IC50 [4]: < 50 nM

SMILES: C#CCN(C)CCNC(=O)C(C)(C)NC(=O)CCOc1ccc(Cc2cc([C@@H]3O[C@H](SC)[C@@H](O)[C@H](O)[C@H]3O)ccc2C#C)cc1 [Example 8]
- IC50 [4]: < 50 nM

— US12612426B2, “Aryl glucoside derivative” (Shanghai Zheye Biotechnology Co. Ltd., priority 2020, dated 2026)
